The numbers were not newly measured in patent publication US20250281435A1, “CHEWABLE GUMMY CONTAINING BETA-HYDROXY BETA-METHYLBUTYRIC ACID (HMB)” (Concept Matrix Solutions, priority 2024, published 2025), which cites them from elsewhere.

Each structure is given as a SMILES string.

For the series the following is noted: oral ingestion.

Consider `CC(C)(O)CC(=O)O` [HMB, 3-hydroxy-3-methylbutanoic acid], for which the “time of peak plasma concentration after ingestion” value is 1 to 2 h.
